Test results taken from patent publication US20240307351A1, “AGENT FOR ANTI-AGING OR FOR CELLULAR REJUVENATION” (TOHOKU UNIVERSITY, priority 2022, published 2024).

System: FABP4 Gene
Test: Quantitative PCR of FABP4 Gene in brown adipocytes of Ndufs4−/− mice
Type: in vivo, mouse
Settings: 10 mg/day per kg, 50 days, vs CMC administration group
Method: Compound #5 was administered to NDUFS4 homozygous knockout mice (Ndufs4−/−mice) (4 weeks old) at a dose of 10 mg/day per kg of mouse weight for 50 days ([Compound #5 administration group]).
In addition, CMC (carboxymethylcellulose) was administered to NDUFS4 homozygous knockout mice (Ndufs4−/−mice) at a dose of 10 mg/day per kg of mouse weight for 50 days ([CMC administration group; Control group]).
Brown adipocytes were collected from the mice of [Compound #5 administration group] and [CMC administration group]. Total RNA was extracted from the brown adipocytes, and cDNA was prepared therefrom and used for measurement of mRNA expression level. The measurement was performed by a quantitative PCR method. The expression level of mRNA was determined with a relative ratio to β-actin used as an internal standard. As primers and probes, the following commercially available products (manufactured by Thermo Fisher Scientific Inc., and the like) were used. • Mouse Acts (actin beta, β-actin) Mm02619580_g1, Cat #4331182 • Mouse Ucp1 (uncoupling protein 1), Mm00494069_m1, Cat #4331182 • Mouse Pparg (PPARγ, peroxisome proliferator activated receptor gamma), Mm00440945_m1, Cat #4331182p • Mouse Fabp4 (fatty acid binding protein 4), Mm00445880_m1, Cat #4331182

Q: Which “expression of FABP4 Gene” value does the source give for `O=C(CC(C(=O)O)c1c[nH]c2ccccc12)c1ccc(F)cc1F` (stereo not shown) [Compound #5, 4-(2,4-difluorophenyl)-2-(1H-indole-3-yl)-4-oxo-butanoic acid] here?
A: higher
